In PMC8206213, “An L-2-hydroxyglutarate biosensor based on specific transcriptional regulator LhgR” (Nature Communications, 2021):
Where “and” joins values, the source holds several entries; their conditions need not be identical. Identical values can stand only once.

Experiments:
[1] = Dose-response of purified LHGFR and its variants for L-2-HG in 50 mM Tris-HCl buffer (pH 7.4), Venus/mTFP emission ratio; format: binding
Description: Purified L-2-HG biosensors and different compounds were diluted by 50 mM Tris-HCl buffer (pH 7.4), mixed together in a black 96-well plate at a volume ratio of 3:1, and the fluorescence intensities were measured using an EnSight microplate reader (PerkinElmer, USA) with excitation at 430 nm, emission at 485 nm (mTFP) and 528 nm (Venus). The dose-response curves were fitted by OriginPro 2016 software (OriginLab) according to the following formula:1 R=Rmax+Rmin−Rmax/1+([L-2-HG]/Kd)^p where R, Rmin, and Rmax refer to the emission ratio of Venus to mTFP, ratio in the absence of L-2-HG, and ratio at saturation with L-2-HG, respectively. The [L-2-HG], Kd, and p refer to the L-2-HG concentration, apparent dissociation constant, and Hill slope, respectively. Emission spectra were recorded at 430 nm excitation, in steps of 2 nm. Excitation spectra were recorded using emission at 550 nm, excitation from 380 to 535 nm in steps of 2 nm.

[2] = Dose-response of LHGFR expressed in digitonin-permeabilized HEK293FT cells for L-2-HG; format: cell-based, human (HEK293FT cells)
Description: To characterize the sensitivity and specificity of LHGFR expressed in HEK293FT cells, cells were trypsinized 48 h following transfection and suspended in 1× Hank’s balanced salt solution supplemented with 20 mM HEPES. […] Digitonin at a concentration of 10 μM was used to induce cell permeabilization and deplete intracellular L-2-HG for in vivo response curves construction. Then, the fluorescence intensities were determined by a SpectraMax i3 fluorescence plate reader (Molecular Devices, USA) with excitation at 430 nm and emission at 485 nm (mTFP) and 528 nm (Venus). Basal L-2-HG concentration in HEK293FT cells under physiological conditions was determined by substituting the emission ratios of non-permeabilized HEK293FT cells into the calibrated in vivo response curves.

In the case of `O=C(O)CC[C@H](O)C(=O)O` [L-2-HG, L-2-Hydroxyglutarate], the “Emission ratio of 528/485” value ([1]; Supplementary Fig. 6c, L-2-HG concentration 2000) was 2.899 and 2.986 and 2.9894, the “Emission ratio of 528/485” value ([1]; Supplementary Fig. 6e, L-2-HG concentration 0.01) was 1.655 and 1.676 and 1.693 and the “Emission ratio of 528/485” value ([1]; Supplementary Fig. 6e, L-2-HG concentration 0.1) was 1.641 and 1.674 and 1.689. The “Emission ratio of 528/485” value ([1]; Supplementary Fig. 6e, L-2-HG concentration 0.2) was 1.675 and 1.688 and 1.698, the “Emission ratio of 528/485” value ([1]; Supplementary Fig. 6e, L-2-HG concentration 1) was 1.753 and 1.778 and 1.797 and the “Emission ratio of 528/485” value ([1]; Supplementary Fig. 6e, L-2-HG concentration 2) was 1.892 and 1.897 and 1.889. The “Emission ratio of 528/485” value ([1]; Supplementary Fig. 6e, L-2-HG concentration 10) was 2.254 and 2.242 and 2.288, the “Emission ratio of 528/485” value ([1]; Supplementary Fig. 6e, L-2-HG concentration 20) was 2.359 and 2.347 and 2.363 and the “Emission ratio of 528/485” value ([1]; Supplementary Fig. 6e, L-2-HG concentration 100) was 2.568 and 2.652 and 2.688. The “Emission ratio of 528/485” value ([1]; Supplementary Fig. 6e, L-2-HG concentration 200) was 2.563 and 2.676 and 2.688, the “Emission ratio of 528/485” value ([1]; Supplementary Fig. 6e, L-2-HG concentration 1000) was 2.635 and 2.6341 and 2.632 and the “Emission ratio of 528/485” value ([1]; Supplementary Fig. 6e, L-2-HG concentration 2000) was 2.667 and 2.655 and 2.697. The “Emission ratio of 528/485” value ([1]; Supplementary Fig. 6d, L-2-HG concentration 0.01) was 1.72 and 1.724 and 1.742, the “Emission ratio of 528/485” value ([1]; Supplementary Fig. 6d, L-2-HG concentration 0.1) was 1.742 and 1.747 and 1.746 and the “Emission ratio of 528/485” value ([1]; Supplementary Fig. 6d, L-2-HG concentration 1) was 1.865 and 1.88 and 1.882. For the same compound, the “Emission ratio of 528/485” value ([1]; Supplementary Fig. 6d, L-2-HG concentration 2) was 2.014 and 2.037 and 2.039, the “Emission ratio of 528/485” value ([1]; Supplementary Fig. 6d, L-2-HG concentration 10) was 2.446 and 2.449 and 2.469 and the “Emission ratio of 528/485” value ([1]; Supplementary Fig. 6d, L-2-HG concentration 20) was 2.546 and 2.554 and 2.592. The “Emission ratio of 528/485” value ([1]; Supplementary Fig. 6d, L-2-HG concentration 100) was 2.59 and 2.651 and 2.67, the “Emission ratio of 528/485” value ([1]; Supplementary Fig. 6d, L-2-HG concentration 1000) was 2.653 and 2.699 and 2.7087 and the “Emission ratio of 528/485” value ([1]; Supplementary Fig. 6d, L-2-HG concentration 2000) was 2.665 and 2.7183 and 2.7325. The Normalized emission ratio ([2]; Fig. 6c, L-2-HG concentration 0.01) was 0.9714 and 1.018 and 1.011, the Normalized emission ratio ([2]; Fig. 6c, L-2-HG concentration 0.1) was 1.002 (2×) and 0.9784 and the Normalized emission ratio ([2]; Fig. 6c, L-2-HG concentration 1) was 1.006 and 0.9618 and 1.048. The Normalized emission ratio ([2]; Fig. 6c, L-2-HG concentration 10) was 1.045 and 1.118 and 1.137, the Normalized emission ratio ([2]; Fig. 6c, L-2-HG concentration 20) was 1.133 and 1.12 and 1.163 and the Normalized emission ratio ([2]; Fig. 6c, L-2-HG concentration 100) was 1.245 and 1.312 and 1.322. The Normalized emission ratio ([2]; Fig. 6c, L-2-HG concentration 200) was 1.303 and 1.3035 and 1.367, the Normalized emission ratio ([2]; Fig. 6c, L-2-HG concentration 1000) was 1.414 and 1.364 and 1.401 and the Normalized emission ratio ([2]; Fig. 6c, L-2-HG concentration 2000) was 1.387 and 1.439 and 1.425. The Normalized emission ratio ([2]; Fig. 6c, L-2-HG concentration 10000) was 1.443 and 1.404 and 1.415, the Normalized emission ratio ([2]; L-2-HG concentration 0.01, Supplementary Fig. 17c) was 0.9984 and 1.014 and 0.9873 and the Normalized emission ratio ([2]; L-2-HG concentration 0.01, Supplementary Fig. 18c) was 0.9865 and 0.9714 and 1.042. For the same compound, the Normalized emission ratio ([2]; L-2-HG concentration 0.1, Supplementary Fig. 17c) was 1 and 1.004 and 1.02, the Normalized emission ratio ([2]; L-2-HG concentration 0.1, Supplementary Fig. 18c) was 0.9909 and 1.037 and 0.9822 and the Normalized emission ratio ([2]; L-2-HG concentration 1, Supplementary Fig. 17c) was 1.007 and 1.056 and 1.0486. For the same compound, the Normalized emission ratio ([2]; L-2-HG concentration 1, Supplementary Fig. 18c) was 0.9662 and 0.9722 and 0.9935, the Normalized emission ratio ([2]; L-2-HG concentration 10, Supplementary Fig. 17c) was 1.22 and 1.297 and 1.235 and the Normalized emission ratio ([2]; L-2-HG concentration 10, Supplementary Fig. 18c) was 0.9752 and 1.056 and 0.9703. For the same compound, the Normalized emission ratio ([2]; L-2-HG concentration 20, Supplementary Fig. 17c) was 1.319 and 1.273 and 1.318, the Normalized emission ratio ([2]; L-2-HG concentration 20, Supplementary Fig. 18c) was 1.003 and 1.067 and 0.9797 and the Normalized emission ratio ([2]; L-2-HG concentration 100, Supplementary Fig. 17c) was 1.392 and 1.387 and 1.431. For the same compound, the Normalized emission ratio ([2]; L-2-HG concentration 100, Supplementary Fig. 18c) was 1.048 and 0.9825 and 0.9723, the Normalized emission ratio ([2]; L-2-HG concentration 200, Supplementary Fig. 17c) was 1.3826 and 1.447 and 1.484 and the Normalized emission ratio ([2]; L-2-HG concentration 200, Supplementary Fig. 18c) was 0.9116 and 1.038 and 1.008. For the same compound, the Normalized emission ratio ([2]; L-2-HG concentration 1000, Supplementary Fig. 17c) was 1.434 and 1.459 and 1.447, the Normalized emission ratio ([2]; L-2-HG concentration 1000, Supplementary Fig. 18c) was 0.9678 and 0.9844 and 0.9663 and the Normalized emission ratio ([2]; L-2-HG concentration 2000, Supplementary Fig. 17c) was 1.455 and 1.475 and 1.401. The Normalized emission ratio ([2]; L-2-HG concentration 2000, Supplementary Fig. 18c) was 0.9838 and 0.9876 and 0.9675, the Normalized emission ratio ([2]; L-2-HG concentration 10000, Supplementary Fig. 17c) was 1.475 and 1.44 and 1.4468 and the Normalized emission ratio ([2]; L-2-HG concentration 10000, Supplementary Fig. 18c) was 0.9794 and 1.103 and 1.106.
